Laboratory results from patent publication US6204277A, “Propionic acid derivatives and applications thereof” (Japan Tobacco Inc., priority 1996, dated 2001).

How the values were obtained:
3T3-L1 cells = assay: Evaluation of Insulin Sensitivity Using 3T3-L1 Cells (triglyceride accumulation); format: cell-based; conditions: Mus musculus, 96 h, insulin 10 ng/ml, 4 days, triglyceride increase by 10 μM pioglitazone taken as 100%, read-out: EC50 (dose necessary for a 50% increase of triglyceride)
Procedure: Evaluation of Insulin Sensitivity Using 3T3-L1 Cells 3T3-L1 cells (purchased from American Type Culture Collection) which were in the n=x+3 passage were purchased and subcultured until the passage number reached n=x+8. The cells were frozen in liquid nitrogen, thawed and suboultured till n=x+11. 0.05% Trypsin-0.53 mM ethylenediaminetetraacetic acid (EDTA) was added and the cells were harvested. The cells were suspended in Dulbecco's modified Eagle's medium (DMEM) [5% fetal bovine serum (FBS), supplemented with 5.6 mM glucose], plated on a 24 well plate at a concentration of 0.5×10^5 cells/well and cultured. Two days later, the medium was changed to DMEM [5% FBS, supplemented with 5.6 mM glucose] containing 1 μM dexamethasone and 0.5 mM isobutylmethylxanthine and the incubation was continued for 2 more days. The test compounds were dissolved in dimethyl sulfoxide and diluted 1000-fold with DMEM [2% FBS, supplemented with 5.6 mM glucose] containing insulin (10 ng/ml) to make the final concentration thereof to 0 nM-10 μM, and added to the cells, which cells were incubated for 4 days. After incubation, isopropanol was added by 200 μl per well and the cells were ruptured by a probe type ultrasonicator. The triglyceride amount was determined using a triglyceride determination kit. The activity of the compounds was determined by calculating relative triglyceride increase achieved by each compound when that achieved by 10 μM pioglitazone was taken as 100%, and expressed by the dose (EC50) necessary for a 50% increase of triglyceride. The test compounds were those of Examples 1-3, 5, 8, 15, 16, 18, 19, 22 and 28 and Reference Example 1. As a control compound, used was a known compound of the following formula. The above test concerns whether or not the insulin sensitivity of 3T3-L1 cells is promoted. […] When insulin acts on 3T3-L1 cells, it not only takes up glucose but permits accumulation of triglyceride in the cells. Thus, after allowing insulin to act, the cells are ruptured and triglyceride is quantitatively determined, whereby the degree of the action of insulin and the degree of sensitivity can be known.

diabetic mice (KK-Ay) = assay: Evaluation of Serum Glucose of Diabetic Mice; format: in vivo; conditions: Mus musculus, 96 h; KK-Ay male mice, oral in diet, 4 days; read-out: Serum glucose ED50 (dose corresponding to a -50% change)
Procedure: Evaluation of Serum Glucose of Diabetic Mice
Genetically obese, hyperglycemic, hyperinsulinemic and hyperlipidemic diabetic mice (KK-Ay, male, Clea Japan, Inc., 8 weeks of age) were used for the pharmacological tests. Before the initiation of the drug administration, about 100 μl of blood was taken from orbital venosus under light ether anesthesia, and serum glucose was measured as described below. Based on the obtained value and body weight, the mice were grouped (6 per group) in such a manner that there existed no differences between the groups.
The test compounds were those of Examples 1 and 5 and Reference Example 1, as well as the above-mentioned control compound.
The test compounds were respectively dissolved in ethanol (three levels of concentrations per compound) and added to a powdered diet (CRF-1, ORIENTAL YEAST CO., LTD.). The diet was homogeneously mixed and ethanol was evaporated. The diet was given to the above-mentioned mice for 4 days, and the test compounds were orally administered (3 doses each). To a control group, CRF-1 powdered diet was given.
At day 4, blood samples (ca. 200 μl) were taken again in the same manner as above, and serum was separated (12,000 rpm, 5 min.) and used for the determination. Serum glucose was measured by hexokinase method (LYQUITECH glucose-HK-test; Boehlinger Marnheim Yamanouchi). Used for the determination was an automatic analyzer COBAS FARA II (Roche).
Changes in percentage of serum glucose of each group were calculated as follows from the values obtained at day 4 from the control group and the group administered with test compounds. [formula]
The changes in percentage of serum glucose was plotted on the axis of ordinates and the dose (mg/kg/day) of the test compound was plotted on the axis of abscissa (log), and the dose corresponding to a -50% change was read and taken as the ED50 of each test compound.

Row | Structure (SMILES) | EC50 (3T3-L1 cells) | ED50 (diabetic mice (KK-Ay))
1 | COC(=O)C(Cc1ccc(OCCc2nc(-c3ccccc3)oc2C)cc1)C(=O)O (centres unmarked) [Example 1, 2-Methoxycarbonyl-3-[4-[2-(5-methyl-2-phenyl-4-oxazolyl)ethoxy]phenyl]propionic acid] | 0.00045 µM | 0.12 mg/kg
2 | Cc1oc(-c2ccccc2)nc1CCOc1ccc(CCC(N)=O)cc1 [Example 18, 3-[4-[2-(5-Methyl-2-phenyl-4-oxazolyl)ethoxy]phenyl]propionamide] | 0.065 µM | –
3 | Cc1oc(-c2ccccc2)nc1CCOc1ccc(CC(C(N)=O)C(=O)O)cc1 (centres unmarked) [Example 3, 2-Carbamoyl-3-[4-[2-(5-methyl-2-phenyl-4-oxazolyl)ethoxy]phenyl]propionic acid] | 0.15 µM | –
4 | COC(=O)C(Cc1ccc(OCCc2nc(-c3ccccc3)oc2C)cc1)C(N)=O (centres unmarked) [Example 2, Methyl 2-carbamoyl-3-[4-[2-(5-methyl-2-phenyl-4-oxazolyl)ethoxy]phenyl]propionate] | 0.09 µM | –
5 | COC(=O)CCc1ccc(OCCc2nc(-c3ccccc3)oc2C)cc1 [Example 16, Methyl 3-[4-[2-(5-methyl-2-phenyl-4-oxazolyl)ethoxy]phenyl]propionate] | 0.053 µM | –
6 | Cc1oc(-c2cc3ccccc3s2)nc1CCOc1ccc(CCC(=O)NC(N)=O)cc1 [Example 15, N-[3-[4-[2-(2-(Benzothiophen-2-yl)-5-methyl-4-oxazolyl)ethoxy]phenyl]propionyl]urea] | 0.09 µM | –
7 | CCc1ccc(CCOc2ccc(CC3SC(=O)NC3=O)cc2)nc1 (centres unmarked) [Control compound, reference compound] | 0.18 µM | 10.6 mg/kg
8 | COC(=O)C(Cc1ccc(OCCc2nc(-c3ccccc3)oc2C)cc1)C(=O)OC [Reference Example 1, Dimethyl 2-[4-[2-(5-methyl-2-phenyl-4-oxazolyl)ethoxy]benzyl]malonate] | 0.00038 µM | 0.17 mg/kg
9 | Cc1oc(-c2ccccc2)nc1CCOc1ccc(CC(C)(C(N)=O)C(=O)O)cc1 (centres unmarked) [Example 28, 2-Carbamoyl-2-methyl-3-[4-[2-(5-methyl-2-phenyl-4-oxazolyl)ethoxy]phenyl]propionic acid] | 0.073 µM | –
10 | COC(=O)NC(=O)CCc1ccc(OCCc2nc(-c3ccccc3)oc2C)cc1 [Example 19, Methyl N-[3-[4-[2-(5-methyl-2-phenyl-4-oxazolyl)ethoxy]phenyl]propionyl]carbamide] | 0.09 µM | –
11 | CSC(=O)NC(=O)CCc1ccc(OCCc2nc(-c3ccccc3)oc2C)cc1 [Example 22] | 0.09 µM | –
12 | COC(=O)NC(=O)C(Cc1ccc(OCCc2nc(-c3ccccc3)oc2C)cc1)C(=O)OC (centres unmarked) [Example 8, Methyl 2-methoxycarbonylcarbamoyl-3-[4-[2-(5-methyl-2-phenyl-4-oxazolyl)ethoxy]phenyl]propionate] | 0.007 µM | –
13 | Cc1oc(-c2ccccc2)nc1CCOc1ccc(CC(C(=O)O)C(=O)O)cc1 [Example 5, 2-[4-[2-(5-Methyl-2-phenyl-4-oxazolyl)ethoxy]benzyl]malonic acid] | 0.0072 µM | 2.7 mg/kg
